According to patent US11708346B2, “Treatment and prevention of neuropathic pain with P2Y14 antagonists” (Saint Louis University, priority 2019, dated 2023):
“And” between values parts separate entries of the source, which are not always exact repeats. Equal values may be shown once. “Also recorded” adds a separate entry of the source.

Tests used:
[1] = tested on: CCI-induced mechano-allodynia; test: Chronic constriction injury (CCI) of the sciatic nerve, mechano-allodynia by von Frey filaments; assay type: in vivo, mouse; settings: for Effect at 0.5 h (% ± SD), percent inhibition of mechano-allodynia / Effect at 1 h (% + SD), percent inhibition of mechano-allodynia / Effect at 2 h (% ± SD), percent inhibition of mechano-allodynia / Effect at 3 h (% ± SD), percent inhibition of mechano-allodynia / Effect at 5 h (% ± SD), percent inhibition of mechano-allodynia / Reversal of CCI-induced mechano-allodynia / ED50: day 7 post-CCI; for Effect at 0.5 h (% ± SD), percent inhibition of mechano-allodynia / Effect at 1 h (% + SD), percent inhibition of mechano-allodynia / Effect at 2 h (% ± SD), percent inhibition of mechano-allodynia / Effect at 3 h (% ± SD), percent inhibition of mechano-allodynia / Effect at 5 h (% ± SD), percent inhibition of mechano-allodynia: n = 3; for Reversal of CCI-induced mechano-allodynia: ipsilateral hind paw; for ED50: Mus musculus, ip, read-out: ED50 at 1 h (95% CI), reversal of mechano-allodynia, 1 h post drug
Method: Chronic constriction injury (CCI) to the sciatic nerve was performed using the Bennett model. […] Then the animals were placed on a sterile surgical field and the skin was wiped with topical antiseptic, Dermachlor solution (0.2% chlorhexidine gluconate). […] A small incision was created on the lateral side of the left hind limb parallel to the femur. The sciatic nerve was exposed and ligated on two sites about 1 mm apart above the trifurcation using silk sutures 6.0. The incision was closed with clips and lidocaine cream was applied.
Mice were acclimated to the testing mesh-rack for 30 min before behavioral measurements. All behavioral testing was performed in the morning. The baseline measurements were determined on day 0 before CCI procedure. On day 7 post-CCI, baseline behavior responses were assessed, beginning prior to drug administration. Following drug injection, the behaviors were evaluated at multiple time points. Mechano-allodynia was quantified according to the hind paw withdrawal response to von Frey filaments stimulation by the Dixon up-and-down method. […] In presence of a positive withdrawal response a lighter filament was applied. If a negative response occurred, a stronger filament was used. At least four readings are obtained after the first positive response and the pattern of response was converted to a 50% paw withdrawal threshold (PWT), using the method described by Chaplan et al., J. Neurosci.
Data are expressed as mean±SD and analyzed by two-tailed, two-way repeated measures ANOVA with Dunnett's post hoc comparisons to day 7 behavior. The percentage of reversal of peak CCI-induced pain afforded by each drug was calculated for each animal using their baseline and day 7 post CCI behavioral measures. % Reversal=(PWT(g)t−PWT(g)day7)/PWT(g)day0−PWT(g)day7)×100, where PWT(g)=paw withdrawal threshold, t=time after drug. […] All statistical analyses were performed using GraphPad Prism 8 (Graph Pad Inc., San Diego, Calif.). Significance was accepted at p<0.05.

hP2Y14R = target: T1, hP2Y14R (Homo sapiens, UniProt Q15391); test: Competitive fluorescent binding assay in whole CHO-hP2Y14R cells, tracer 20, flow cytometry; settings: read-out: Human P2Y14R binding affinity (IC50)
T1 construct: expressed in transfected cells; host or cells: CHO
T1 sequence (Q15391 1-338): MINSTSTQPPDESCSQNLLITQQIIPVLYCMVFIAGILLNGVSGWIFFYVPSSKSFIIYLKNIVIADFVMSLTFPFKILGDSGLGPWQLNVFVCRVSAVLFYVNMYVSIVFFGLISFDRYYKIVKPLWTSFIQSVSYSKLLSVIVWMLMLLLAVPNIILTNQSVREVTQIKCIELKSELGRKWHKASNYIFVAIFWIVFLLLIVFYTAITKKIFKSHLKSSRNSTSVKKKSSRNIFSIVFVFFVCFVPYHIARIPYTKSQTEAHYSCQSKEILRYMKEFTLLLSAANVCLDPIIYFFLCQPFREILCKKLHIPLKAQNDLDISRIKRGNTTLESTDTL

mP2Y14R = target: T2, mP2Y14R (Mus musculus, UniProt Q9ESG6); settings: read-out: Mouse P2Y14R binding affinity (IC50); mP2Y14R in HEK293 cells, tracer 20
T2 sequence (Q9ESG6 1-338): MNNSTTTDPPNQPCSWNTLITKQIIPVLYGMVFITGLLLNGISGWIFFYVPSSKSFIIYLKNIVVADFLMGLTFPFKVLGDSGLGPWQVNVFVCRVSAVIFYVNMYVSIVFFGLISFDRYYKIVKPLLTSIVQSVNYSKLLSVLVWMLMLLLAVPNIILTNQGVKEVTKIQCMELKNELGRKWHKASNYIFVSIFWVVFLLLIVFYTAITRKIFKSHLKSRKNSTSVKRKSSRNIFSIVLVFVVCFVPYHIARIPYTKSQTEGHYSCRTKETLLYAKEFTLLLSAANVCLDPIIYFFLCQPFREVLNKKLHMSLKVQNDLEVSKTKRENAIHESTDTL

CB2 cannabinoid receptor = target: T3, CB2 cannabinoid receptor (Homo sapiens, UniProt P34972); test: PRESTO-Tango agonist/antagonist assay; assay type: cell-based
T3 construct: expressed in transfected cells
Method: (§1) Synthesis of 7 was performed using a Sonogashira reaction (11 to 12), click reaction (13 to 14) and a Suzuki reaction (15 to 16) followed by two-step deprotection. […].

CB1 cannabinoid receptor = target: T4, CB1 cannabinoid receptor (Homo sapiens, UniProt P21554); test: PRESTO-Tango agonist/antagonist assay; assay type: cell-based
T4 construct: expressed in transfected cells
Method: as §1

5HT1D = 5HT1D (Homo sapiens, UniProt P28221); test: PDSP off-target binding; settings: ± SEM
Chain of 5HT1D (P28221 whole entry, species assumed): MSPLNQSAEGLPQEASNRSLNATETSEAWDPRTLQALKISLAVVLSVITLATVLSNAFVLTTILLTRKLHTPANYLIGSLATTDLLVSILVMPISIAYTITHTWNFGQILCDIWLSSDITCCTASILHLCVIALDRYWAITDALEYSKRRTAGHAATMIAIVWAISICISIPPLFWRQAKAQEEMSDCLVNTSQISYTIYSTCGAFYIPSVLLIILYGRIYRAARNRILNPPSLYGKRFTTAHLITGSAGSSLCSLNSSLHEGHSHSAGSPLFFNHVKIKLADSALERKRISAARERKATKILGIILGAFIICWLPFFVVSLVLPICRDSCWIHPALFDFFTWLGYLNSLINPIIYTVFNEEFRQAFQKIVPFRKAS

T4 sequence (P21554 whole entry): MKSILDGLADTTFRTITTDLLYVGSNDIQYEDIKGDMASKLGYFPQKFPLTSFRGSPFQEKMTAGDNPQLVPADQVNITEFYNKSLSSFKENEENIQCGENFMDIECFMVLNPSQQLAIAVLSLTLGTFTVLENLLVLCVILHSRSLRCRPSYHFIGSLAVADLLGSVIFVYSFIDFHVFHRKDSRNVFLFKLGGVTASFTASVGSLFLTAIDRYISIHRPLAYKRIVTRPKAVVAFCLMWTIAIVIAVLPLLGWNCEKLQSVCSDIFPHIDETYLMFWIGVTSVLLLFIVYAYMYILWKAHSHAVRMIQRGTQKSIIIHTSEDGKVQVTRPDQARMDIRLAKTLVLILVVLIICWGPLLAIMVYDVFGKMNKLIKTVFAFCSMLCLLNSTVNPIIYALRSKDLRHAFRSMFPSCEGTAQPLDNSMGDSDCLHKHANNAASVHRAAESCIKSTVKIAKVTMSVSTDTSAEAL
T3 sequence (P34972 whole entry): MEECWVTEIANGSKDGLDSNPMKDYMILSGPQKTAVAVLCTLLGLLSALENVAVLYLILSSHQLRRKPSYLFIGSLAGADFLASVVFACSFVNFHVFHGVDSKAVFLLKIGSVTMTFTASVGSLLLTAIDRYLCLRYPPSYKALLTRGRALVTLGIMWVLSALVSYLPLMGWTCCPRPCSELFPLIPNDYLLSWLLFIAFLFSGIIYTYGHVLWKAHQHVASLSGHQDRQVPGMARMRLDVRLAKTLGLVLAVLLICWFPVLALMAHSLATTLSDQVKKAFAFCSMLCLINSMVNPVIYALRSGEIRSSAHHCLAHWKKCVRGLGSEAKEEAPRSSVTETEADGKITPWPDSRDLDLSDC

Row | Structure (SMILES) | Effect at 0.5 h (% ± SD), percent inhibition of mechano-allodynia ([1]; 10 μmol/kg, i.p.) | Effect at 1 h (% + SD), percent inhibition of mechano-allodynia ([1]; 10 μmol/kg, i.p.) | Effect at 2 h (% ± SD), percent inhibition of mechano-allodynia ([1]; 10 μmol/kg, i.p.) | Effect at 3 h (% ± SD), percent inhibition of mechano-allodynia ([1]; 10 μmol/kg, i.p.) | Effect at 5 h (% ± SD), percent inhibition of mechano-allodynia ([1]; 10 μmol/kg, i.p.) | Reversal of CCI-induced mechano-allodynia ([1]; 10 μmol/kg, i.p.) | IC50 (hP2Y14R) | IC50 (mP2Y14R) | other results
1 | O=C(O)c1cc(O)c2ccc(-c3ccc(C(F)(F)F)cc3)cc2c1 [Compound 2] | 23.4 ± 21.2% | 64.2 ± 24.9% | 59.8 ± 18.1% | 35.2 ± 22.2% | 0.0 ± 0.0% | reversed the allodynia | 3200 ± 640 nM | 1600 ± 250 nM | –
2 | O=C(O)c1cc(-c2ccc(C3CCNCC3)cc2)c2ccc(-c3ccc(C(F)(F)F)cc3)cc2c1 [Compound 1, 4-[4-(piperidin-4-yl)phenyl]-7-[4-(rifluoromethyl)phenyl]-2-naphthoic acid] | 87.9 ± 12.9% | 100% and 100 ± 0.0% | 96.4 ± 6.2% | 78.6 ± 9.4% | 21.3 ± 14.1% | fully efficacious; also recorded: reversed the allodynia | – | – | Effect at 0.5 h (% ± SD), percent inhibition of mechano-allodynia ([1]; 1 μmol/kg, i.p.): 10.0 ± 17.3%; Effect at 1 h (% + SD), percent inhibition of mechano-allodynia ([1]; 1 μmol/kg, i.p.): 19.9 ± 17.3%; Effect at 2 h (% ± SD), percent inhibition of mechano-allodynia ([1]; 1 μmol/kg, i.p.): 10.0 ± 17.3%; Effect at 3 h (% ± SD), percent inhibition of mechano-allodynia ([1]; 1 μmol/kg, i.p.): 4.7 ± 8.2%; Effect at 5 h (% ± SD), percent inhibition of mechano-allodynia ([1]; 1 μmol/kg, i.p.): 4.7 ± 8.2%; Effect at 0.5 h (% ± SD), percent inhibition of mechano-allodynia ([1]; 3 μmol/kg, i.p.): 62.9 ± 18.7%; Effect at 1 h (% + SD), percent inhibition of mechano-allodynia ([1]; 3 μmol/kg, i.p.): 79.3 ± 2.2%; Effect at 2 h (% ± SD), percent inhibition of mechano-allodynia ([1]; 3 μmol/kg, i.p.): 76.9 ± 6.3%; Effect at 3 h (% ± SD), percent inhibition of mechano-allodynia ([1]; 3 μmol/kg, i.p.): 64.7 ± 17.2%; Effect at 5 h (% ± SD), percent inhibition of mechano-allodynia ([1]; 3 μmol/kg, i.p.): 8.7 ± 15.1%; ED50 ([1]; i.p.): 1.6 µmol/kg; IC50 (CB2 cannabinoid receptor): > 50000 nM; IC50 (CB1 cannabinoid receptor): > 50000 nM
3 | C#CCCCCN1CCC(c2ccc(-c3cc(C(=O)O)cc4cc(-c5ccc(C(F)(F)F)cc5)ccc34)cc2)CC1 [Compound 3] | 52.4 ± 23.3% | 75.9 ± 15.0% | 42.7 ± 9.6% | 9.6 ± 16.7% | 0.0 ± 0.0% | – | 76.3 ± 24.4 nM | 130 ± 30 nM | Ratio of protection at 3 h divided by the protection at 5 h (duration of action) ([1]; 10 μmol/kg i.p.): 0.13
4 | NCCOCCOCCOCCOCCOCCOCCC(=O)N1CCC(c2ccc(-c3cc(C(=O)O)cc4cc(-c5ccc(C(F)(F)F)cc5)ccc34)cc2)CC1 [Compound 21] | – | – | – | – | – | fully efficacious | – | – | Time of peak protection ([1]; 10 μmol/kg i.p., after injection): 1 to 2 h; Effect on paw withdrawal threshold at the contralateral hind paw ([1]; 10 μmol/kg, i.p., versus vehicle control): No effect
5 | O=C(O)c1cc(-c2ccc(C3CCNCC3)cc2)cc(-n2cc(-c3ccc(C(F)(F)F)cc3)nn2)c1 [Compound 6] | 52.4 ± 9.6% | 67.4 ± 7.0% | 57.2 ± 13.3% | 31.9 ± 16.8% | 12.7 ± 13.2% | – | – | – | Effect at 0.5 h (% ± SD), percent inhibition of mechano-allodynia ([1]; 1 μmol/kg, i.p.): 8.7 ± 15.1%; Effect at 1 h (% + SD), percent inhibition of mechano-allodynia ([1]; 1 μmol/kg, i.p.): 18.7 ± 21.3%; Effect at 2 h (% ± SD), percent inhibition of mechano-allodynia ([1]; 1 μmol/kg, i.p.): 18.7 ± 21.3%; Effect at 3 h (% ± SD), percent inhibition of mechano-allodynia ([1]; 1 μmol/kg, i.p.): 8.7 ± 7.6%; Effect at 5 h (% ± SD), percent inhibition of mechano-allodynia ([1]; 1 μmol/kg, i.p.): 8.7 ± 15.1%; Effect at 0.5 h (% ± SD), percent inhibition of mechano-allodynia ([1]; 3 μmol/kg, i.p.): 44.6 ± 16.6%; Effect at 1 h (% + SD), percent inhibition of mechano-allodynia ([1]; 3 μmol/kg, i.p.): 53.3 ± 24.2%; Effect at 2 h (% ± SD), percent inhibition of mechano-allodynia ([1]; 3 μmol/kg, i.p.): 44.6 ± 16.6%; Effect at 3 h (% ± SD), percent inhibition of mechano-allodynia ([1]; 3 μmol/kg, i.p.): 35.6 ± 11.7%; Effect at 5 h (% ± SD), percent inhibition of mechano-allodynia ([1]; 3 μmol/kg, i.p.): 0.0 ± 0.0%; In vivo efficacy compared with a comparator compound ([1]; 10 μmol/kg i.p., 6 vs 7, 4 vs 1): no statistical difference; ED50 ([1]; i.p.): 3.5 µmol/kg
6 | CCC(=O)N1CCC(c2ccc(-c3cc(C(=O)O)cc4cc(-c5ccc(C(F)(F)F)cc5)ccc34)cc2)CC1 [Compound 5, 4-(4-(1-(Propionyl)piperidin-4-yl)phenyl)-7-(4-(trifluoromethyl)phenyl)-2-naphthoic acid] | 32.9 ± 5.7% | 77.2 ± 26.1% | 71.6 ± 19.8% | 55.7 ± 27.1% | 5.6 ± 6.4% | – | 41.8 ± 1.8 nM | 38 nM | –
7 | NCCCNC(=O)c1ccc(-c2cc(C(=O)O)cc(-n3cc(-c4ccc(C(F)(F)F)cc4)nn3)c2)s1 [Compound 8] | 81.0 ± 6.9% | 91.5 ± 7.4% | 74.0 ± 28.5% | 30.9 ± 21.0% | 10.0 ± 17.3% | – | 169 ± 42 nM | 384 nM | Ki (5HT1D): 6700 nM; Emax, in vivo efficacy ([1]; 10 μmol/kg i.p.): 91.5%
